According to patent publication US20230148214A1, “INDAZOLES AND AZAINDAZOLES AS LRRK2 INHIBITORS” (ESCAPE Bio, Inc., priority 2020, published 2023):

Assays:
LRRK2 G2019S = biological target: T1, LRRK2 G2019S (Homo sapiens, UniProt Q5S007, G2019S); assay: LRRK2 Kinase Activity Assay (LanthaScreen TR-FRET), G2019S; assay type: biochemical; conditions: recombinant G2019S-LRRK2, 25 μM ATP, 400 nM LRRKtide, 60 min; class symbols
T1 construct: purchased Life Technologies PV4881
In short: (§1)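 Recombinant wild-type or G2019S LRRK2 incubated with fluorescein-labeled LRRKtide (ERM-based) peptide, ATP and serially diluted compound for 60 min at room temperature.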

LRRK2 WT = biological target: T2, LRRK2 WT (Homo sapiens, UniProt Q5S007); assay: LRRK2 Kinase Activity Assay (LanthaScreen TR-FRET), wild type; assay type: biochemical; conditions: recombinant wild type LRRK2, 25 μM ATP, 400 nM LRRKtide, 60 min; class symbols
T2 construct: purchased Life Technologies PR8604B
T2 sequence (Q5S007 whole entry): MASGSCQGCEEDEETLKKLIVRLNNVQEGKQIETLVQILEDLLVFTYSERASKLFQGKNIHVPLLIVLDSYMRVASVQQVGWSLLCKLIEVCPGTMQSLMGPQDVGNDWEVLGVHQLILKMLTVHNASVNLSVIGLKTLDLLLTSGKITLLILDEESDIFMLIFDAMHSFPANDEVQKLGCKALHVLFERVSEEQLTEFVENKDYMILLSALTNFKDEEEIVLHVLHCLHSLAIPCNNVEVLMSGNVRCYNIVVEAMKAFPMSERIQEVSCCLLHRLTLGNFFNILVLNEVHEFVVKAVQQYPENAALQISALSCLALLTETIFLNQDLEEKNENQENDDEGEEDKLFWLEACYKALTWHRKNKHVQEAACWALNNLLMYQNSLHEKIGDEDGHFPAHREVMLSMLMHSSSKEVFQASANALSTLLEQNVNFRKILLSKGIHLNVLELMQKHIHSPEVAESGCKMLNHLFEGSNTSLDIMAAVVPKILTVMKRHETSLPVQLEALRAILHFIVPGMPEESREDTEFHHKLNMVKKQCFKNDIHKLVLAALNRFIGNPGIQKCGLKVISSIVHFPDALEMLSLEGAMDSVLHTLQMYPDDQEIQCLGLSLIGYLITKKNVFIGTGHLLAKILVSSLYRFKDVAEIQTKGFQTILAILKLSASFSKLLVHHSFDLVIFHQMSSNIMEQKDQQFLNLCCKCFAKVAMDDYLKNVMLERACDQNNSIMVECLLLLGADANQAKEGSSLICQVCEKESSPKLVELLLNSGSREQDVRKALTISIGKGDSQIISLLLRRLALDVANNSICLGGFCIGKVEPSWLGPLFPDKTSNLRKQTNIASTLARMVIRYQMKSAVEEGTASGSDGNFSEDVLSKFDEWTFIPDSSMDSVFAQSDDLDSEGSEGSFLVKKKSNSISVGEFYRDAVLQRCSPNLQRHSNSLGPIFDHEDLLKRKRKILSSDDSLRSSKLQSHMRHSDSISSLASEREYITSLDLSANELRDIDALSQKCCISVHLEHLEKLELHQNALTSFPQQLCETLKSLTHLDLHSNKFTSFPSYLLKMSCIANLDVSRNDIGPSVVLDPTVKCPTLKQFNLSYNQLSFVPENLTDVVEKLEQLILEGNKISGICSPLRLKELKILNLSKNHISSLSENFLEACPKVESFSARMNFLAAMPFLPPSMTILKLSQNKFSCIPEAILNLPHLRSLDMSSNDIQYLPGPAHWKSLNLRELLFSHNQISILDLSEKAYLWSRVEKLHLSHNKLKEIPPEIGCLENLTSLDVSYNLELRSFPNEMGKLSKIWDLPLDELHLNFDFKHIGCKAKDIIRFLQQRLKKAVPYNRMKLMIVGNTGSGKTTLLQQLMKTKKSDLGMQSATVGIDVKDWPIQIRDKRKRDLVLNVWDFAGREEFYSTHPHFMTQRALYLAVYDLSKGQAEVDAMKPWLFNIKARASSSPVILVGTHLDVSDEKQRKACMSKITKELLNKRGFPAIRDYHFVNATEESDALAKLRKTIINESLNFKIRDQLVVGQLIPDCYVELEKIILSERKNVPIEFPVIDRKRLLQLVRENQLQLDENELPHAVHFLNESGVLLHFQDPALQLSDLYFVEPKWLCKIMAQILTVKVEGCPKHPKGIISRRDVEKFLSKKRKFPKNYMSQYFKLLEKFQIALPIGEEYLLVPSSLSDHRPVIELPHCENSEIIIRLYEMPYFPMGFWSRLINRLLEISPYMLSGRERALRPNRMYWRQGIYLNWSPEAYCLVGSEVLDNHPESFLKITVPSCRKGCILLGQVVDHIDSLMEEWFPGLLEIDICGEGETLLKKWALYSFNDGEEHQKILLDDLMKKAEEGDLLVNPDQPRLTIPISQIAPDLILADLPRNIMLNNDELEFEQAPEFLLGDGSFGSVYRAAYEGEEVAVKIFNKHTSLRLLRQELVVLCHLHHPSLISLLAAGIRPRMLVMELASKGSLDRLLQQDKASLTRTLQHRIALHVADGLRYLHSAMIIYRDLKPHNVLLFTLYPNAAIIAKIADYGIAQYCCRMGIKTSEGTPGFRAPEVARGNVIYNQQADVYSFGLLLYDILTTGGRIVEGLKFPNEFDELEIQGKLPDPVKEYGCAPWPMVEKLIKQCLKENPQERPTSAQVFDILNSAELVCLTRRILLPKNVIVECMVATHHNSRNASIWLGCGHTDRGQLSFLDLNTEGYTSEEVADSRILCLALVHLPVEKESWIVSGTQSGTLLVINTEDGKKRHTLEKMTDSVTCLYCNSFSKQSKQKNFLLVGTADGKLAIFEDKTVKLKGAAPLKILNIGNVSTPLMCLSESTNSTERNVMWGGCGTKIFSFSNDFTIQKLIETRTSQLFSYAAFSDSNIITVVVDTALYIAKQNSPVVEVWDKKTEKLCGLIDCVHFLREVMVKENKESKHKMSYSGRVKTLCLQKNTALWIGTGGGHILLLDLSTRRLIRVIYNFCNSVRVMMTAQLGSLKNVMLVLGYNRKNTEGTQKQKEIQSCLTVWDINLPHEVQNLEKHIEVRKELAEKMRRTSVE
In short: as §1

T1 sequence (Q5S007 whole entry G2019S): as the sequence (Q5S007 whole entry) above, with G2019S counted along it

Structure (SMILES)	IC50 (LRRK2 G2019S) [nM]	IC50 (LRRK2 WT) [nM]
N#Cc1cnc2c(c1Cl)CCC[C@@H]2Nc1ccc2[nH]nc(-c3cnco3)c2c1 (single isomer, unassigned) [Example 144, enantiomer 1, 4-Chloro-8-((3-(oxazol-5-yl)-1H-indazol-5-yl)amino)-5,6,7,8-tetrahydroquinoline-3-carbonitrile]	100 to 1000	100 to 1000
N#Cc1cnc2c(c1)CCC[C@@H]2Nc1ccc2[nH]nc(-c3ccc[nH]3)c2c1 (single isomer, unassigned) [Example 148, enantiomer 1, 8-((3-(1H-Pyrrol-2-yl)-1H-indazol-5-yl)amino)-5,6,7,8-tetrahydroquinoline-3-carbonitrile]	< 100	< 100
N#Cc1cnc2c(c1)CCC[C@@H]2Nc1ccc2[nH]nc(-c3ccc[nH]3)c2c1 (single isomer, unassigned) [Example 148, enantiomer 2, 8-((3-(1H-Pyrrol-2-yl)-1H-indazol-5-yl)amino)-5,6,7,8-tetrahydroquinoline-3-carbonitrile]	100 to 1000	100 to 1000
Cn1ccc(-c2n[nH]c3ccc(N[C@H]4CCCc5cc(C#N)cnc54)cc23)c1 (single isomer, unassigned) [Example 149, enantiomer 1, 8-((3-(1-Methyl-1H-pyrrol-3-yl)-1H-indazol-5-yl)amino)-5,6,7,8-tetrahydroquinoline-3-carbonitrile]	100 to 1000	100 to 1000
Cn1ccc(-c2n[nH]c3ccc(N[C@H]4CCCc5cc(C#N)cnc54)cc23)c1 (single isomer, unassigned) [Example 149, enantiomer 2, 8-((3-(1-Methyl-1H-pyrrol-3-yl)-1H-indazol-5-yl)amino)-5,6,7,8-tetrahydroquinoline-3-carbonitrile]	< 100	< 100

Now from value to compound:

IC50 (LRRK2 G2019S) [nM]	IC50 (LRRK2 WT) [nM]	Structure (SMILES)
< 100	100 to 1000	N#Cc1ccc2c(c1Cl)CCC[C@@H]2Nc1ccc2[nH]nc(-c3cnco3)c2c1 (single isomer, unassigned) [Example 143, enantiomer 1, 1-Chloro-5-((3-(oxazol-5-yl)-1H-indazol-5-yl)amino)-5,6,7,8-tetrahydronaphthalene-2-carbonitrile]
< 100	< 100	N#Cc1cnc2c(c1Cl)CCC[C@@H]2Nc1ccc2[nH]nc(-c3cnco3)c2c1 (single isomer, unassigned) [Example 144, enantiomer 2, 4-Chloro-8-((3-(oxazol-5-yl)-1H-indazol-5-yl)amino)-5,6,7,8-tetrahydroquinoline-3-carbonitrile]
< 100	100 to 1000	N#Cc1cnc2c(c1C(F)(F)F)CCC[C@@H]2Nc1ccc2[nH]nc(-c3cnco3)c2c1 (single isomer, unassigned) [Example 145, enantiomer 1, 8-((3-(Oxazol-5-yl)-1H-indazol-5-yl)amino)-4-(trifluoromethyl)-5,6,7,8-tetrahydroquinoline-3-carbonitrile]
< 100	100 to 1000	COc1c(C#N)cnc2c1CCC[C@@H]2Nc1ccc2[nH]nc(-c3cnco3)c2c1 (single isomer, unassigned) [Example 146, enantiomer 1, 4-Methoxy-8-((3-(oxazol-5-yl)-1H-indazol-5-yl)amino)-5,6,7,8-tetrahydroquinoline-3-carbonitrile]
< 100	< 100	N#Cc1cnc2c(c1C(F)F)CCC[C@@H]2Nc1ccc2[nH]nc(-c3cnco3)c2c1 (single isomer, unassigned) [Example 147, enantiomer 1, 4-(Difluoromethyl)-8-((3-(oxazol-5-yl)-1H-indazol-5-yl)amino)-5,6,7,8-tetrahydroquinoline-3-carbonitrile]
< 100	100 to 1000	N#Cc1cnc2c(c1C(F)F)CCC[C@@H]2Nc1ccc2[nH]nc(-c3cnco3)c2c1 (single isomer, unassigned) [Example 147, enantiomer 2, 4-(Difluoromethyl)-8-((3-(oxazol-5-yl)-1H-indazol-5-yl)amino)-5,6,7,8-tetrahydroquinoline-3-carbonitrile]
